In EP1836906B1, “Healthy food product” (Unilever N.V., priority 2006, dated 2009):
Ends that are not written are not given here.

Assay: not given
Details: pH 6.5

Compound	Peptide category (substantially water-insoluble or soluble)
NCC(=O)NCC(=O)NCC(=O)NCC(=O)NCC(=O)NCC(=O)O [GGGGGG]	Insoluble peptides

Assay: Water solubility test (turbid appearance of 10 mg peptide in 10 ml de-mineralised water)
Details: water at 20 C and pH 6.5
Description: Peptides for use in food products according to the invention are water-insoluble in water at 20°C and a pH of 6.5. This can for example be evidenced by mixing 10 mg of the peptide into 10 ml of de-mineralised water at 20°C and pH 6.5, and stirring. A (measurable) turbid appearance of the solution after stirring is indicative of the fact that the peptide is water-insoluble.

Compound	Peptide category (substantially water-insoluble or soluble)
DDDDDD [DDDDDD, reference compound]	Soluble peptides
EAEWEY [EAEWEY, reference compound]	Soluble peptides
GGGGGGGG [GGGGGGGG]	Insoluble peptides
GSGGSG [GSGGSG]	Soluble peptides
VEWEME [VEWEME, reference compound]	Soluble peptides
YYYYYY [YYYYYY]	Insoluble peptides
